Source: US20090075397A1, “Method for characterizing sugar-binding interactions of biomolecules” (Academia Sinica, priority 2007, published 2009)

T1: lectin UEA-1 (Ulex europaeus, UniProt P22972)
T1 construct: purchased EY Labs, Inc
T1 sequence (P22972 1-243): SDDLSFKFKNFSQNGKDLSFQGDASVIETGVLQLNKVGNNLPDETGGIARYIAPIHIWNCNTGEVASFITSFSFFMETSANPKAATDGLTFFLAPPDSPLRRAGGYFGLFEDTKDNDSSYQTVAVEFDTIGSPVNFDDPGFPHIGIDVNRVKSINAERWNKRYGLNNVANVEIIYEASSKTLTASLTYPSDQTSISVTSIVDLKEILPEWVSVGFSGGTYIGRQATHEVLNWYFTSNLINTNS

B1: PNA: lectin of Arachis hypogaea (protein, UniProt P02872 24-273, looked up)
Galactose-binding lectin: AETVSFNFNSFSEGNPAINFQGDVTVLSNGNIQLTNLNKVNSVGRVLYAMPVRIWSSATGNVASFLTSFSFEMKDIKDYDPADGIIFFIAPEDTQIPAGSIGGGTLGVSDTKGAGHFVGVEFDTYSNSEYNDPPTDHVGIDVNSVDSVKTVPWNSVSGAVVKVTVIYDSSTKTLSVAVTNDNGDITTIAQVVDLKAKLPERVKFGFSASGSLGGRQIHLIRSWSFTSTLITTTRRSIDNNEKKIMNMASA

How the values were obtained:
[1] = test system: anti-Lex antibody; test: ALPHAScreen sugar/protein binding assay, sugar on donor beads, antibody on acceptor beads; settings: sugar linked to streptavidin donor beads
[2] = target: T1, lectin UEA-1; test: ALPHAScreen sugar/protein binding assay, sugar on donor beads, lectin on acceptor beads; settings: sugar linked to streptavidin donor beads, UEA-1 on acceptor beads
[3] = test system: recombinant hemagglutinin (HA) of H1N1 (A/Beijing/262/95); type: binding, influenza virus H1N1 (A/Beijing/262/95)
[4] = test system: H1N1 virus (A/Beijing/262/95); type: binding, influenza virus H1N1 (A/Beijing/262/95); settings: virus particles on acceptor beads, FIG. 5A
[5] = test system: H3N2 virus (A/Panama/2007/99); type: binding, influenza virus H3N2 (A/Panama/2007/99); settings: virus particles on acceptor beads, FIG. 5B
[6] = ALPHAScreen profiling of lectin binding specificities with biotinylated PAA-sugars; settings: for Binding specificities: Table 2 (SI), examined lectins

| Molecule | recognition by HA of H1N1 (A/Beijing/262/95) [3] | recognition by H1N1 virus (A/Beijing/262/95) [4] | further results |
| --- | --- | --- | --- |
| Galβ1-4(Fucα1-3)GlcNAc (Le^x) [Glycan No. 33] |  |  | binding signal with anti-Lex antibody [1]: able to produce signals |
| α-L-Fuc [Glycan No. 6] |  |  | binding signal with lectin UEA-1 [2]: able to produce signals |
| CC(=O)N[C@H]1C(O)O[C@H](CO[C@]2(C(=O)O)C[C@H](O)[C@@H](NC(=O)CO)[C@H]([C@H](O)[C@H](O)CO)O2)[C@H](O)[C@@H]1O (stereo partly drawn) [Glycan No. 22, NeuGcα2-6GalNAc] | do not recognize | do not recognize |  |
| (NeuAcα2-8)5-6 [Glycan No. 52] | do not recognize | do not recognize | recognition by H3N2 virus (A/Panama/2007/99) [5]: accepted |
| SBA: lectin of Glycine max |  |  | Binding specificities [6]: GalNAc/Gal |
| CC(=O)N[C@H]1[C@H]([C@H](O)[C@H](O)CO)O[C@@](O[C@H]2[C@@H](O)[C@@H](CO)OC(O)[C@@H]2NC(C)=O)(C(=O)O)C[C@@H]1O (stereo partly drawn) [Glycan No. 27, NeuAcα2-3GalNAc] | do not recognize | do not recognize |  |
| B1 |  |  | Binding specificities [6]: Galβ1-3GalNAc; lectin sugar binding specificity ([6]; profiled with more than 50 biotinylated PAA-sugars, FIG. 2): binds to the Galb1-3GalNAc structure specifically |
